Where two headings read alike, the source gives them in different places.
How the values were obtained:
[1] = system: intracerebral 2-AG and arachidonic acid; test: Measurement of intracerebral 2-AG and arachidonic acid concentrations; format: in vivo, mouse (C57BL/6J); conditions: for 2-AG concentration / arachidonic acid concentration: cerebrum of male C57BL/6J mice, 3 mg/kg body weight by gavage, isolated 1 hour after administration; for 2-AG concentration: control 9.9; for arachidonic acid concentration: control 163.5; for migration into brain / intracerebral 2-AG concentration compared to control / intracerebral arachidonic acid concentration compared to control: oral administration to C57BL/6J mice; for intracerebral 2-AG concentration compared to control / intracerebral arachidonic acid concentration compared to control: result in words
Method: As the mouse, 8-week-old male C57BL/6J mice (CLEA Japan, Inc.) were used (6 mice/group). Administration solutions were prepared by suspending the test compounds (compound 1 (compound of Example 6), compound 2 (compound of Example 93) and compound 3 (compound of Example 97)) in 0.5% methylcellulose solution (Wako Pure Chemical Industries, Ltd.). The dose of the test compound was prepared to be 3 mg/kg body weight/10 mL. The test compounds were administered by gavage at 3 mg/kg body weight. The cerebrum was isolated after the administration of the test compound (isolation time after the administration of the test compound is shown in Table 3), and the cerebrum hemisphere was extracted. The obtained cerebrum hemisphere was frozen on dry ice, and the frozen tissue weight was measured.
The cerebral tissue weight was measured, and cerebral tissue was homogenized with 4-fold (v/w) of isopropanol (IPA), and double diluted with IPA. To the diluted sample (200 μL) was added internal standard solution (5 μL) ([5,6,8,9,11,12,14,15-D8]-(5Z,8Z,11Z,14Z)5,8,11,14-eicosatetraenoic acid (AA-d8, 0.5 nmol/mL IPA) and [5,6,8,9,11,12,14,15-D8]-(5Z,8Z,11Z,14Z)-5,8,11,14-eicosatetraenoyl-2-glycerol ester (2-AG-d8, 0.5 nmol/mL IPA)), and the mixture was centrifuged at 15000 rpm for 5 min. The supernatant was injected to liquid chromatographymass spectrometer to perform quantitative analysis.
For liquid chromatography, Shimadzu LC20A system (Shimadzu Corporation) was used. The separation was performed by gradient elution method with mobile phase A (10 mmol/L HCOONH4/HCOOH (100:0.2, v/v)) and mobile phase B (ethanol/IPA (3:2, v/v)) using Shim-pack XR-ODS (2.2 μm, 2.0×30 mm, Shimadzu Corporation) at column temperature of 50° C., at flow rate of 0.5 mL/min. The gradient conditions are as follows: 0-1 min, 1% B; 1-1.2 min, 1-55% B; 1.2-2.7 min, 55-75% B; 2.7-3.5 min, 75-99% B; 3.5-6 min, 99% B; 6-8 min, 1% B.
For mass spectrometer, API5000 (AB SCIEX) was used. The eluate from the liquid chromatography was directly ionized by turbospray ionization method, where (5Z,8Z,11Z,14Z)5,8,11,14-eicosatetraenoic acid (AA) and AA-d8 were measured by negative ionization mode, and (5Z,8Z,11Z,14Z)5,8,11,14-eicosatetraenoyl-2-glycerol ester (2-AG) and 2-AG-d8 were measured by positive ionization mode.
A solution for calibration curve was prepared to the concentration of 2, 5, 10, 20, 50, 100, 200, 500, 1000 nmol/mL of acetonitrile. These solutions (10 μL) was mixed with 200 μL of IPA and 5 μL of internal standard solution, and the mixture was centrifuged at 15000 rpm for 5 min, and the supernatant was injected to liquid chromatography mass spectrometer to perform analysis. The calibration curve was drawn by regression line with a weighting of 1/x^2, and the quantitativity was confirmed by accuracy of 100±20% and R^2>0.99.

[2] = target: T1, His-hMAGL (recombinant polyhistidine tagged human MAGL protein) (Homo sapiens, UniProt Q99685); test: Measurement of MAGL inhibitory activity (RapidFire-mass spectrometry of arachidonic acid produced from 2-arachidonylglycerol); format: biochemical; conditions: read-out: % inhibition (10 μM)
T1 construct: polyhistidine (His) (N); made in house; host or cells: E. coli BL21(DE3)
T1 sequence (Q99685 1-303): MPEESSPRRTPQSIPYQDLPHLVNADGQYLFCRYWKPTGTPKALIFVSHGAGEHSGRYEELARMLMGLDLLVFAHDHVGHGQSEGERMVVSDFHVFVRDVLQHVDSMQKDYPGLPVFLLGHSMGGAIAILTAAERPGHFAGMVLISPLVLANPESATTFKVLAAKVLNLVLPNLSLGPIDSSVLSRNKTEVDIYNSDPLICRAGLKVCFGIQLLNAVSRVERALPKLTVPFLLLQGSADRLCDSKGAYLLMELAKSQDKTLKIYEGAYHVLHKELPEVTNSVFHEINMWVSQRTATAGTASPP
How it was run: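 After quenching with acetonitrile containing 3 μM arachidonic acid-d8, the arachidonic acid formed was measured by online SPE RapidFire-MS/MS in negative SRM mode and corrected against the d8 standard. Inhibition (%) was calculated relative to compound-free and enzyme-free groups.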

Row | Structure (SMILES) | 2-AG concentration [1] | arachidonic acid concentration [1] | migration into brain [1] | intracerebral 2-AG concentration compared to control [1] | intracerebral arachidonic acid concentration compared to control [1] | inhibition at 10 µM ([2]; test compound 10 μM, His-hMAGL, substrate 2-arachidonylglycerol, 60 min preincubation) | inhibition at 10 µM [2]
1 | O=C1N[C@]2(CO1)C[C@H](C(=O)N1CC(OCc3ccc(C(F)(F)F)cc3F)C1)C2 [Example 6, (2s,4s)-2-((3-((2-fluoro-4-(trifluoromethyl)benzyl)oxy)azetidin-1-yl)carbonyl)-7-oxa-5-azaspiro[3.4]octan-6-one] | 124.5 nmol/g | 31.7 nmol/g | migrated into brain | increased significantly | decreased significantly | 100% | 
2 | Cc1ccc(COC2CN(C(=O)[C@H]3C[C@]4(COC(=O)N4)C3)C2)cc1Cl [Example 97, (2s,4s)-2-((3-((3-chloro-4-methylbenzyl)oxy)azetidin-1-yl)carbonyl)-7-oxa-5-azaspiro[3.4]octan-6-one] | 131.9 nmol/g | 60.9 nmol/g | migrated into brain | increased significantly | decreased significantly |  | 100%

From patent publication US10323026B2, “Heterocyclic compound” (Takeda Pharmaceutical Company Limited, priority 2016, dated 2019)
